“And” between values parts separate entries of the source, which are not always exact repeats. Equal values may be shown once. Read-outs that look alike come from different tables or passages of the source.
Assays:
IL-1β = IL-1β detection (ELISA) in PBMC culture; type: cell-based, human; settings: for IL-1β detection: HA 200 μg/mL, A2A 5 μM
Description: (§1) The effects of the combination clonidine and hyaluronic acid were tested in a model of Peripheral Blood Mononuclear Cells. In brief, PBMCs (Peripheral blood mononuclear cells) from heparinized venous blood of healthy volunteers were isolated by Ficoll-gradient centrifugation. MNC (Mononuclear cells) were washed three times in PBS and resuspended in RPMI-1640 medium supplemented with 100 U/mL penicillin, 100 μg/mL streptomycin, and 10% heat-inactivated FBS. Cells were seeded at 100.000 cells in 96-wel plate in a total volume of 200 μL/well.
(§2) PBMC, at 100.000 cells/200 μL, were plated in 96-well microtiter plates and stimulated or not 10 μg/mL phytohemagglutinin (PHA). Effects of hyaluronic acid “HA” (200 μg/mL) and p-aminoclonidine “A2A” (5 μM) were tested on PBMC.
IL-1β detection (By ELISA). Levels of IL-1β from PBMC or culture supernatants were measured by Quantikine ELISA kit (R&D Systems Inc, Minneapolis, USA). The minimum detectable concentration of IL-1β was estimated at 1.0 pg/mL.
(§3) The release of IL-1beta by PBMC and the proliferation of PBMC, induced by PHA stimulation, were set as controls, and compared with the measures for PBMC treated with HA and/or A2A.

[1] = system: PBMC (Peripheral blood mononuclear cells); assay: PBMC proliferation assay (3H-thymidine); type: cell-based, human; settings: for Proliferation: HA 200 μg/mL, A2A 5 μM
Description: as §1, §2
Proliferation Assay. The culture was incubated with 1 μCi/mL 3H-thymidine for 24 h before end of culture to measure the proliferation. Then, cells were washed twice with ice-cold PBS and twice with ice-cold 5% trichloroacetic acid (TCA). Finally, cells were lysed with 0.1N NaOH-0.1% Triton-X100. Supernatants were collected and analyzed on a beta-counter in presence of scintillation liquid. Results were done in cpm (“count per minute”=disintegration number of radioactive element observed in series of successive counts of one minute).
as §3

IL-I beta = assay: Inhibition of IL-I beta release by LPS-stimulated TH1 cells; type: cell-based
Description: The inhibition of IL-I beta release by alpha-2-adrenergic agonists, induced by LPS stimulation of TH1 cells, is measured under control conditions (dexamethasone).

acute pain = settings: cited from earlier work
mono-arthritis symptoms = system: mono-arthritis symptoms; design: Reduction in Pain: concentration or dose not given beside the values; settings: cited from earlier work
[2] = PBMC + PHA 10 μg/mL, PBMC + PHA = 100
[3] = PBMC not stimulated, PBMC + PHA = 100
[4] = average data from meta-analyses and/or published studies

## Nc1cc(Cl)c(N=C2NCCN2)c(Cl)c1 [A2A, p-aminoclonidine]
IL-1β; PBMC + PHA
  effect on IL-1beta secretion, in words: totally suppresses the increase in IL-1beta secretion
IL-1β; unstimulated PBMC
  effect on basal conditions, in words: no effect
[1]; PBMC + PHA
  effect on PBMC proliferation, in words: not able to inhibit PBMC proliferation
[1]; PBMC + PHA 10 μg/mL
  Proliferation: 16212 cpm
[1]; [2]
  Proliferation: 101%
[1]; PBMC not stimulated
  Proliferation: 786 cpm
[1]; [3]
  Proliferation: 4.9%

## Brc1c(NC2=NCCN2)ccc2nccnc12 [Brimonidine]
IL-I beta
  effect on IL-I beta release, in words: no effects

## C[C@@H]1C[C@H]2[C@@H]3CCC4=CC(=O)C=C[C@]4(C)[C@@]3(F)[C@@H](O)C[C@]2(C)[C@@]1(O)C(=O)CO [Dexamethasone]
IL-I beta; 10^−7 M, read-out: inhibition of IL-I beta secretion
  inhibition at 0.1 µM: ~65%

## N=C(N)N/N=C/c1c(Cl)cccc1Cl [Guanabenz]
IL-I beta
  effect on IL-I beta release, in words: no effects

## Clc1cccc(Cl)c1NC1=NCCN1 [clonidine, N-(2,6-dichlorophenyl)-4,5-dihydro-1H-imidazol-2-amine]
Acute pain; Alagol et al, 2005
  minimum effect duration in acute pain studies: 4 h
Acute pain; Gentili et al, 2001
  duration of effects in acute pain studies (not to exceed): ≤ 72 h

## hyaluronic acid [HA]
mono-arthritis symptoms; Arich et al., 2005
  Improvement in Function: −11%
  Reduction in Pain: 0%
  Reduction in Pain (max effect reported): −17%
mono-arthritis symptoms; Kolarz et al., 2003
  Improvement in Function: −23%
  Reduction in Pain: −55%
  improvement in function, maximal effect reported in literature: 23%
  improvement in pain, maximal effect reported in literature: 55%
mono-arthritis symptoms; Lo et al., 2004
  Reduction in Pain: −7%
  Reduction in Pain (max effect reported): −47%
mono-arthritis symptoms; Wang et al., 2004
  Reduction in Pain: −8%
  Reduction in Pain (max effect reported): −24%
mono-arthritis symptoms; [4]
  Improvement in Function: −15%
  Reduction in Pain: −10%
  Side-Effects (major side effects only): None
mono-arthritis symptoms; literature
  benefit on swelling: no reported benefit on swelling
mono-arthritis symptoms; meta-analyses that reassessed efficacy
  decrease of pain score (VAS) in meta-analyses: ≤ 15 mm
IL-1β; PBMC + PHA
  increase of IL-1beta secretion over the stimulated conditions: 3 times
IL-1β; PBMC + PHA 10 μg/mL
  IL-1β detection: 6394 pg/mL
IL-1β; [2]
  IL-1β detection: 293% and 292%
IL-1β; PBMC not stimulated
  IL-1β detection: 2095 pg/mL
IL-1β; [3]
  IL-1β detection: 96%
[1]; PBMC + PHA
  reduction of PBMC proliferation: 2 factor
[1]; PBMC + PHA 10 μg/mL
  Proliferation: 9087 cpm
[1]; [2]
  Proliferation: 57% and 56%
[1]; PBMC not stimulated
  Proliferation: 364 cpm
[1]; [3]
  Proliferation: 2.2%

Reference: US9446065B2, “Pharmaceutical composition for use in the treatment and/or the prevention of osteoarticular diseases” (BONE THERAPEUTICS, priority 2008, dated 2016)
